Laboratory results as given in US20060058388A1, “Methods for treating ocular diseases via introxide and or polyhydroxy acid containing compounds” (priority 2003, published 2006).

Columns and labels:
[1] = tested on: human skin fibroblasts containing the human elastin promoter linked to a luciferase reporter gene construct; test: Neutral Red Cytotoxicity/Phototoxicity Assay
Protocol: Immortalized human skin fibroblasts containing the human elastin promoter linked to a luciferase reporter gene construct were seeded in 96-well plates at a density of 7,500 cells per well (doubling time ˜30 hours). Cells were grown in 75 cm^2 tissue culture flasks in MEM (without phenol red) supplemented with 10% FBS, 25 mM HEPES, 2 mM l-glutamine, 1% nonessential amino acids, 50 μg/mL Gentamycin, and 5 μg/mL Zeocin. Cell cultures were incubated in a 37° C. incubator (containing 5% CO2) when not being manipulated or irradiated. Cell cultures were washed with Phosphate Buffered Saline (PBS) with Ca^++ and Mg^++ when media or compounds were removed and before ultraviolet radiation (UVR).
Gluconolactone was prepared in PBS. Concentrations of 0.5, 1.0, 2.5, 5.0, 7.5, 10.0, 12.5, and 25% (w/v) were prepared and adjusted to a pH of 7.2. Gluconolactone was incubated 15 minutes prior to and in contact with cell cultures during UV-irradiation.
4-Hydroxy-tempo (tempol) was prepared in PBS. Concentrations of tempol of 10, 25, 50, 62.5, 100, 125, 250, and 500 mM were prepared and adjusted to a pH of 7.2. Tempol was incubated 15 minutes prior to and in contact with cell cultures during UV-irradiation.
Cell cultures were UV-irradiated with Westinghouse 40-Watt fluorescent sunlamps (FS-40 lamps) with doses of either 2 or 5 mJ/cm^2, based on a PMA2100 radiometer (Solar light Company, Philadelphia, Pa.) equipped with a PMA2101 erythema weighted detector.
Fifteen hours after UV-irradiation with the FS-40 lamps, cell cultures were washed with PBS and Neutral Red Medium (Neutral Red dye+supplemented MEM) was added for a 3 hours (in 37° C. incubators). After the incubation period, cells are washed with PBS and the Neutral Red Desorb solution (50% Ethanol, 49% distilled water, 1% Glacial Acetic Acid) was added. Plates are shaken for 10 minutes at 500 rpm and then the absorption was read at 540 nm using THERMOmax plate reader and SOFTmax PRO software.

[2] = tested on: human elastin promoter linked to a luciferase reporter gene construct in human skin fibroblasts; test: human elastin promoter/luciferase assay (UV-induced promoter induction); type: cell-based
Protocol: Thus, gluconolactone protects against UV-induced gene induction in cells containing the human elastin promoter/luciferase construct. […] The ED50 for cell cultures with tempol but not receiving any ultraviolet radiaiton was approximately 100 mM.
Gluconolactone was prepared in PBS.
4-Hydroxy-tempo (tempol) was prepared in PBS.

| Structure (SMILES) | protection against toxicity ([1]; neutral red assay, increasing ultraviolet doses) | ED50 for cell cultures ([1]; not receiving any ultraviolet radiation) | ED50 for cell cultures ([1]; ultraviolet radiation dose 2 mJ/cm^2) | ED50 for cell cultures ([1]; ultraviolet radiation dose 5 mJ/cm^2) [mM] | protection against toxicity ([2]; human elastin promoter/luciferase assay, increasing ultraviolet doses) | phototoxicity or cytotoxicity [1] | ED50 for phototoxicity ([1]; human, pH 7.2) | protection against UV-induced promoter induction ([2]; human elastin promoter/luciferase fibroblasts, UV-irradiated) |
| --- | --- | --- | --- | --- | --- | --- | --- | --- |
| CC1(C)CC(O)CC(C)(C)N1[O] [tempol, 4-Hydroxy-tempo] | over 50% | approximately 100 mM | approximately 150 mM | ~250 | over 50% |  |  |  |
| O=C1O[C@H](CO)[C@@H](O)[C@H](O)[C@H]1O [Glucolactone, Gluconolactone] |  |  |  |  |  | did not demonstrate significant phototoxicity or cytotoxicity | approximately 102 g/L | approximately 50% |
